Measured values from ChEMBL document CHEMBL1146054, “Structural modifications of the cannabinoid side chain towards C3-aryl and 1',1'-cycloalkyl-1'-cyano cannabinoids” (Bioorg Med Chem Lett, 2006).

How the values were obtained:
Cannabinoid receptor 1 = Cannabinoid receptor 1 (Rattus norvegicus, UniProt P20272); assay: Displacement of [3H]CP-55940 from rat brain CB1 receptor
Cannabinoid receptor 2 = Cannabinoid receptor 2 (Mus musculus, UniProt P47936); assay: Displacement of [3H]CP-55940 from mouse spleen CB2 receptor; assay type: tissue-based
[1] = Selectivity for rat CB1 receptor over mouse CB2 receptor

Cannabinoid receptor 1, sequence (P20272 whole entry): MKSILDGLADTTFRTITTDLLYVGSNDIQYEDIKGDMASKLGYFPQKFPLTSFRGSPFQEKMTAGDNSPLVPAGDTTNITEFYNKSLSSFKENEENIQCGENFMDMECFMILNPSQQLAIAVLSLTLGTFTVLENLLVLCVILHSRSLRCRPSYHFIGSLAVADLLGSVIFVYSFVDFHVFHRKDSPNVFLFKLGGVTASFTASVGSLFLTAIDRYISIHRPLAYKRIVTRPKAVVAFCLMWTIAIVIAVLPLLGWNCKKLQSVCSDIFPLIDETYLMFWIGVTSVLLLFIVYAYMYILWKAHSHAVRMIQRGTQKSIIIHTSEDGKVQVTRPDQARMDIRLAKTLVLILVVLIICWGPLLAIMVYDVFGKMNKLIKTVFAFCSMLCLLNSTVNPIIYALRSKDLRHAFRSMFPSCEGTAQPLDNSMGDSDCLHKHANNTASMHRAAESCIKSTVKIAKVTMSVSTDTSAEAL
Cannabinoid receptor 2, sequence (P47936 whole entry): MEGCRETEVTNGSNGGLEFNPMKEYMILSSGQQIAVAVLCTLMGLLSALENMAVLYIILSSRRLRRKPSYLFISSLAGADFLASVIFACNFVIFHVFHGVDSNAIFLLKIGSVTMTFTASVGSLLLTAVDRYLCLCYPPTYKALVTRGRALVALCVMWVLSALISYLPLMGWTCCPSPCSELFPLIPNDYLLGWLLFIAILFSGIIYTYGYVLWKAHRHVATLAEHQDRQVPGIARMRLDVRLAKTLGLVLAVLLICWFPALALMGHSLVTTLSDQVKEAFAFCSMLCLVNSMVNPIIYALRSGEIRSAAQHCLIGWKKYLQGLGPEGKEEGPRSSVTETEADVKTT

SMILES	Ki (Cannabinoid receptor 1) [nM]	Ki (Cannabinoid receptor 2) [nM]	Ratio Ki [1]
CC1=CC[C@@H]2[C@@H](C1)c1c(O)cc(-c3cccc4ccccc34)cc1OC2(C)C	11.7	9.39	1.2
C=C(C)[C@@H]1CCC(C)=C[C@H]1c1c(O)cc(-c2cccc3ccccc23)cc1O	754	222	3.4
CCCCCC#Cc1cc(O)c2c(c1)OC(C)(C)[C@@H]1CC=C(C)C[C@@H]21			0.2
CC1=CC[C@@H]2[C@@H](C1)c1c(O)cc(C3(C#N)CCCCC3)cc1OC2(C)C	8.26	3.86	2.1
CCCCCc1cc(O)c2c(c1)OC(C)(C)[C@@H]1CC=C(C)C[C@@H]21			1.2
CCCc1ccc(-c2cc(O)c3c(c2)OC(C)(C)[C@@H]2CC=C(C)C[C@@H]32)cc1	57.8	108	0.5
CC1=CC[C@@H]2[C@@H](C1)c1c(O)cc(C34CC5CC(CC(C5)C3)C4)cc1OC2(C)C			0.1
CCc1ccc(-c2cc(O)c3c(c2)OC(C)(C)[C@@H]2CC=C(C)C[C@@H]32)cc1	119	51.7	2.3
C=C(C)[C@@H]1CCC(C)=C[C@H]1c1c(O)cc(C2(C#N)CCCCC2)cc1O	319	111	2.9
C=C(C)[C@@H]1CCC(C)=C[C@H]1c1c(O)cc(-c2ccc(C)cc2)cc1O	638	374	1.7
CC1=CC[C@@H]2[C@@H](C1)c1c(O)cc(C3(C#N)CCCC3)cc1OC2(C)C	27.9	25.2	1.1
C=C(C)[C@@H]1CCC(C)=C[C@H]1c1c(O)cc(C2(C#N)CCCC2)cc1O	255	105	2.4
CC1=CC[C@@H]2[C@@H](C1)c1c(O)cc(-c3ccc(C)cc3)cc1OC2(C)C	95.5	71.8	1.3
